Like-named read-outs stand apart in the source and are kept apart here.
Assays:
Assay type in all cases: cell-based
[1] = tested on: Proteus mirabilis (PMI) isolates; test: microbe, parasite or virus in culture; settings: for MIC ATB in combination: AF1 @ 4 μg/mL
Description: Method 2: MIC of Compounds Alone and Combined with Antibacterials Against Bacterial Isolates.
Compounds of the present invention were assessed against genotyped bacterial strains (Table 3, 4) alone or in combination with an antibacterial (Table 2). […] Log phase bacterial suspensions were adjusted to a final density of 5·10^5 CFU/mL in cation-adjusted Mueller-Hinton broth (ca-MHB; Becton-Dickinson and Company) and added to each well (98 μL). Microplates were incubated for 16-20 h at 35° C. in ambient air. The MIC of the compounds was defined as the lowest concentration of said compounds that prevented bacterial growth as read by visual inspection. The MIC of ATB at each compound concentration was defined as the lowest concentration of ATB that prevented bacterial growth as read by visual inspection.

[2] = tested on: Citrobacter koseri (CKR) isolates; test: MIC of compounds alone and combined with antibacterials, broth microdilution (CLSI); settings: for MIC ATB in combination: AF1 @ 4 μg/mL; for MIC: Citrobacter koseri
Method in brief: (§1)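 Log-phase isolates at final 5·10^5 CFU/mL in cation-adjusted Mueller-Hinton broth, incubated 16-20 h at 35° C in ambient air. MIC read visually as lowest concentration preventing growth, for compound alone and for antibacterial at each compound concentration.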

[3] = tested on: Klebsiella oxytoca (KOX) isolates; test: as above; settings: for MIC ATB in combination: AF1 @ 4 μg/mL; for MIC: Klebsiella oxytoca
Method in brief: as §1

[4] = tested on: Morganella morganii (MMO) isolates; test: as above; settings: for MIC: Morganella morganii
Method in brief: as §1

Structure (SMILES): CC1(C)S[C@@H]2[C@H](NC(=O)[C@H](N)c3ccc(O)cc3)C(=O)N2[C@H]1C(=O)O [AMX, Amoxicillin]
- MIC [1]: 128 µg/mL
- MIC ATB in combination ([1]; PMI UFR82): 8 µg/mL
- MIC ATB in combination ([1]; PMI UFR120): <=0.25 μg/mL
- MIC ATB in combination ([1]; PMI UFR121): <=0.25 μg/mL
- MIC ATB in combination ([1]; PMI UFR122): <=0.25 μg/mL
- MIC ATB in combination ([1]; PMI UFR123): <=0.25 μg/mL
- MIC ATB in combination ([1]; PMI UFR124): <=0.25 μg/mL
- MIC ATB in combination ([1]; PMI UFR125): <=0.25 μg/mL
- MIC ATB in combination ([1]; PMI UFR126): 4 µg/mL
- MIC ATB in combination ([1]; PMI UFR127): 4 µg/mL
- MIC ATB in combination ([1]; PMI UFR129): 8 µg/mL
- MIC ATB in combination ([1]; PMI UFR130): 8 µg/mL
- MIC ATB in combination ([1]; PMI UFR237): 16 µg/mL
- MIC ([1]; Proteus mirabilis): > 128 µg/mL
- MIC ([1]; Proteus mirabilis, strain PMI UFR82 (CMY-2), ATB alone, read-out: MIC): 256 µg/mL
- MIC ([1]; Proteus mirabilis, strain PMI UFR120 (TEM-1, SHV-11, CTX-M-14), CLA @ 4 μg/ml+ ATB, read-out: MIC): 8 µg/mL
- MIC ([1]; Proteus mirabilis, strain PMI UFR121 (TEM-1, TEM-52), CLA @ 4 μg/ml+ ATB, read-out: MIC): 4 µg/mL
- MIC ([1]; Proteus mirabilis, strain PMI UFR122 (TEM-1, CTX-M-15), CLA @ 4 μg/ml+ ATB, read-out: MIC): 8 µg/mL
- MIC ([1]; Proteus mirabilis, strain PMI UFR123 (CTX-M-1), CLA @ 4 μg/ml+ ATB, read-out: MIC): 16 µg/mL
- MIC ([1]; Proteus mirabilis, strain PMI UFR125 (CTX-M-71), CLA @ 4 μg/ml+ ATB, read-out: MIC): 4 µg/mL
- MIC ([1]; Proteus mirabilis, strain PMI UFR126 (TEM-2, PER-1), CLA @ 4 μg/ml+ ATB, read-out: MIC): 16 µg/mL
- MIC ([1]; Proteus mirabilis, strain PMI UFR127 (VEB-1), CLA @ 4 μg/ml+ ATB, read-out: MIC): 32 µg/mL
- MIC ([1]; Proteus mirabilis, strain PMI UFR129 (TEM-1, VEB-6), CLA @ 4 μg/ml+ ATB, read-out: MIC): 2 µg/mL
- MIC ([1]; Proteus mirabilis, strain PMI UFR237 (VEB-6), CLA @ 4 μg/ml+ ATB, read-out: MIC): 4 µg/mL
- MIC ATB in combination ([2]; CKO ROU): 32 µg/mL
- MIC ATB in combination ([2]; CKO UFR149): 512 µg/mL
- MIC ATB in combination ([2]; CKO UFR150): 64 µg/mL
- MIC ([2]; strain CKO ROU (TEM-1, SHV-12, CTX-M-15, OXA-1, OXA-48), ATB alone): > 256 µg/mL
- MIC ([2]; strain CKO ROU (TEM-1, SHV-12, CTX-M-15, OXA-1, OXA-48), CLA @ 4 μg/ml+ ATB): > 128 µg/mL
- MIC ([2]; strain CKO UFR149 (OXA-48), ATB alone): > 128 µg/mL
- MIC ([2]; strain CKO UFR149 (OXA-48), CLA @ 4 μg/ml+ ATB): > 128 µg/mL
- MIC ([2]; strain CKO UFR150 (TEM-1, OXA-48), ATB alone): > 128 µg/mL
- MIC ([2]; strain CKO UFR150 (TEM-1, OXA-48), CLA @ 4 μg/ml+ ATB): > 128 µg/mL
- MIC ATB in combination ([3]; KOX UFR21): 256 µg/mL
- MIC ATB in combination ([3]; KOX UFR173): 4 µg/mL
- MIC ATB in combination ([3]; KOX UFR223): 16 µg/mL
- MIC ATB in combination ([3]; KOX UFR224): 64 µg/mL
- MIC [3]: > 128 µg/mL
- MIC ([3]; strain KOX UFR21 (TEM-1, CTX-M-15, OXA-48), ATB alone): > 256 µg/mL
- MIC ([3]; strain KOX UFR21 (TEM-1, CTX-M-15, OXA-48), CLA @ 4 μg/ml+ ATB): > 128 µg/mL
- MIC ([3]; strain KOX UFR223 (SHV-11, OXA-48), ATB alone): > 128 µg/mL
- MIC ([3]; strain KOX UFR223 (SHV-11, OXA-48), CLA @ 4 μg/ml+ ATB): > 128 µg/mL
- MIC ([3]; strain KOX UFR224 (CTX-M-15, OXA-48), ATB alone): > 128 µg/mL
- MIC ([3]; strain KOX UFR224 (CTX-M-15, OXA-48), CLA @ 4 μg/ml+ ATB): > 128 µg/mL
- MIC ATB in combination [4]: 128 µg/mL
- MIC ATB in combination ([4]; MMO 200321, AF1 @ 4 μg/mL): 256 µg/mL
- MIC ATB in combination ([4]; MMO UFR240, AF1 @ 4 μg/mL): 32 µg/mL
- MIC ATB in combination ([4]; MMO UFR243, AF1 @ 4 μg/mL): 64 µg/mL
- MIC ATB in combination ([4]; MMO UFR244, AF1 @ 4 μg/mL): 64 µg/mL
- MIC ATB in combination ([4]; MMO UFR245, AF1 @ 4 μg/mL): 64 µg/mL
- MIC ATB in combination ([4]; MMO UFR246, AF1 @ 4 μg/mL): 64 µg/mL
- MIC ATB in combination ([4]; MMO UFR247, AF1 @ 4 μg/mL): 32 µg/mL
- MIC [4]: > 128 µg/mL
- MIC ([4]; strain MMO 200321 (TEM-1, CTX-M-15, OXA-1), ATB alone): > 256 µg/mL
- MIC ([4]; strain MMO 200321 (TEM-1, CTX-M-15, OXA-1), CLA @ 4 μg/ml+ ATB): > 128 µg/mL
- MIC ([4]; strain MMO UFR144 (TEM-1, CTX-M-15), ATB alone): > 128 µg/mL
- MIC ([4]; strain MMO UFR144 (TEM-1, CTX-M-15), CLA @ 4 μg/ml+ ATB): > 128 µg/mL
- MIC ([4]; strain MMO UFR240 (CTX-M-9), ATB alone): > 128 µg/mL
- MIC ([4]; strain MMO UFR240 (CTX-M-9), CLA @ 4 μg/ml+ ATB): > 128 µg/mL
- MIC ([4]; strain MMO UFR241 (TEM-1, CTX-M-15), ATB alone): > 128 µg/mL
- MIC ([4]; strain MMO UFR241 (TEM-1, CTX-M-15), CLA @ 4 μg/ml+ ATB): > 128 µg/mL
- MIC ([4]; strain MMO UFR242 (TEM-52), ATB alone): > 128 µg/mL
- MIC ([4]; strain MMO UFR242 (TEM-52), CLA @ 4 μg/ml+ ATB): > 128 µg/mL

Reference: patent US20200017496A1 (priority 2017, published 2020)
